Results from the supplement of paper PMC10307832.

Experiments:
Experiment in all cases: relative viability (nuclei count vs DMSO), 5 days (fraction); higher = more cells survive
[1] = test system: H3255
Procedure, shortened: (§1)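 Five library-drug doses in √10 steps were combined with a fixed anchor-drug dose, or a single drug was given alone, by pin tool to lung cancer cell lines in 1536-well plates the day after seeding. Nuclei were stained and counted after 5 days. Relative viability is the nuclei count in treated wells over that in vehicle wells, taken as the median of duplicate plates.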

[2] = test system: NCI-H2009
Procedure, shortened: as §1

[3] = test system: NCI-H727
Procedure, shortened: as §1

[4] = test system: NCI-H1993
Procedure, shortened: as §1

[5] = test system: EPLC-272H
Procedure, shortened: as §1

[6] = test system: NCI-H322M
Procedure, shortened: as §1

[7] = test system: NCI-H1915
Procedure, shortened: as §1

[8] = test system: LXF-289
Procedure, shortened: as §1

[9] = test system: NCI-H2023
Procedure, shortened: as §1

[10] = test system: SK-LU-1
Procedure, shortened: as §1

[11] = test system: NCI-H647
Procedure, shortened: as §1

[12] = test system: SW 1573
Procedure, shortened: as §1

[13] = test system: NCI-H2126
Procedure, shortened: as §1

[14] = test system: NCI-H1734
Procedure, shortened: as §1

[15] = test system: NCI-H2085
Procedure, shortened: as §1

[16] = test system: PC-14
Procedure, shortened: as §1

[17] = test system: EMC-BAC-2
Procedure, shortened: as §1

[18] = test system: NCI-H2347
Procedure, shortened: as §1

[19] = test system: HOP-62
Procedure, shortened: as §1

[20] = test system: NCI-H661
Procedure, shortened: as §1

[21] = test system: LCLC-97TM1
Procedure, shortened: as §1

[22] = test system: NCI-H1563
Procedure, shortened: as §1

Cc1sc2c(c1C)C(c1ccc(Cl)cc1)=N[C@@H](CC(=O)OC(C)(C)C)c1nnc(C)n1-2 [JQ1] + Cc1nc(NC(=O)N2CCC[C@H]2C(N)=O)sc1-c1ccnc(C(C)(C)C(F)(F)F)c1 [Alpelisib] (partner 2 µM)
relative viability ([1]; first compound 0.04 µM): 0.691 | relative viability ([1]; first compound 0.1265 µM): 0.62 | relative viability ([1]; first compound 0.4 µM): 0.619 | relative viability ([1]; first compound 1.265 µM): 0.34 | relative viability ([1]; first compound 4 µM): 0.296 | relative viability ([2]; first compound 0.04 µM): 1.09 | relative viability ([2]; first compound 0.1265 µM): 0.968 | relative viability ([2]; first compound 0.4 µM): 0.697 | relative viability ([2]; first compound 1.265 µM): 0.32 | relative viability ([2]; first compound 4 µM): 0.268 | relative viability ([3]; first compound 0.04 µM): 0.525 | relative viability ([3]; first compound 0.1265 µM): 0.668 | relative viability ([3]; first compound 0.4 µM): 0.445 | relative viability ([3]; first compound 1.265 µM): 0.231 | relative viability ([3]; first compound 4 µM): 0.222 | relative viability ([4]; first compound 0.04 µM): 0.705 | relative viability ([4]; first compound 0.1265 µM): 0.653 | relative viability ([4]; first compound 0.4 µM): 0.667 | relative viability ([4]; first compound 1.265 µM): 0.665 | relative viability ([4]; first compound 4 µM): 0.665 | relative viability ([5]; first compound 0.04 µM): 0.897 | relative viability ([5]; first compound 0.1265 µM): 0.904 | relative viability ([5]; first compound 0.4 µM): 0.889 | relative viability ([5]; first compound 1.265 µM): 0.423 | relative viability ([5]; first compound 4 µM): 0.376 | relative viability ([6]; first compound 0.04 µM): 0.752 | relative viability ([6]; first compound 0.1265 µM): 0.77 | relative viability ([6]; first compound 0.4 µM): 0.862 | relative viability ([6]; first compound 1.265 µM): 0.68 | relative viability ([6]; first compound 4 µM): 0.587 | relative viability ([7]; first compound 0.04 µM): 1.05 | relative viability ([7]; first compound 0.1265 µM): 0.94 | relative viability ([7]; first compound 0.4 µM): 0.982 | relative viability ([7]; first compound 1.265 µM): 0.613 | relative viability ([7]; first compound 4 µM): 0.33 | relative viability ([8]; first compound 0.04 µM): 1.02 | relative viability ([8]; first compound 0.1265 µM): 0.983 | relative viability ([8]; first compound 0.4 µM): 0.97 | relative viability ([8]; first compound 1.265 µM): 0.718 | relative viability ([8]; first compound 4 µM): 0.634 | relative viability ([9]; first compound 0.04 µM): 0.544 | relative viability ([9]; first compound 0.1265 µM): 0.651 | relative viability ([9]; first compound 0.4 µM): 0.531 | relative viability ([9]; first compound 1.265 µM): 0.213 | relative viability ([9]; first compound 4 µM): 0.217 | relative viability ([10]; first compound 0.04 µM): 1.11 | relative viability ([10]; first compound 0.1265 µM): 0.586 | relative viability ([10]; first compound 0.4 µM): 0.287 | relative viability ([10]; first compound 1.265 µM): 0.167 | relative viability ([10]; first compound 4 µM): 0.158 | relative viability ([11]; first compound 0.04 µM): 0.998 | relative viability ([11]; first compound 0.1265 µM): 0.596 | relative viability ([11]; first compound 0.4 µM): 0.447 | relative viability ([11]; first compound 1.265 µM): 0.156 | relative viability ([11]; first compound 4 µM): 0.132 | relative viability ([12]; first compound 0.04 µM): 0.808 | relative viability ([12]; first compound 0.1265 µM): 0.702 | relative viability ([12]; first compound 0.4 µM): 0.714 | relative viability ([12]; first compound 1.265 µM): 0.439 | relative viability ([12]; first compound 4 µM): 0.383 | relative viability ([13]; first compound 0.04 µM): 0.797 | relative viability ([13]; first compound 0.1265 µM): 0.682 | relative viability ([13]; first compound 0.4 µM): 0.681 | relative viability ([13]; first compound 1.265 µM): 0.516 | relative viability ([13]; first compound 4 µM): 0.47 | relative viability ([14]; first compound 0.04 µM): 0.709 | relative viability ([14]; first compound 0.1265 µM): 0.645 | relative viability ([14]; first compound 0.4 µM): 0.637 | relative viability ([14]; first compound 1.265 µM): 0.544 | relative viability ([14]; first compound 4 µM): 0.421 | relative viability ([15]; first compound 0.04 µM): 0.975 | relative viability ([15]; first compound 0.1265 µM): 0.844 | relative viability ([15]; first compound 0.4 µM): 0.824 | relative viability ([15]; first compound 1.265 µM): 0.595 | relative viability ([15]; first compound 4 µM): 0.549 | relative viability ([16]; first compound 0.04 µM): 0.974 | relative viability ([16]; first compound 0.1265 µM): 0.921 | relative viability ([16]; first compound 0.4 µM): 0.885 | relative viability ([16]; first compound 1.265 µM): 0.59 | relative viability ([16]; first compound 4 µM): 0.351 | relative viability ([17]; first compound 0.04 µM): 0.663 | relative viability ([17]; first compound 0.1265 µM): 0.749 | relative viability ([17]; first compound 0.4 µM): 0.576 | relative viability ([17]; first compound 1.265 µM): 0.439 | relative viability ([17]; first compound 4 µM): 0.386 | relative viability ([18]; first compound 0.04 µM): 0.982 | relative viability ([18]; first compound 0.1265 µM): 0.8 | relative viability ([18]; first compound 0.4 µM): 0.848 | relative viability ([18]; first compound 1.265 µM): 0.646 | relative viability ([18]; first compound 4 µM): 0.477 | relative viability ([19]; first compound 0.04 µM): 1.2 | relative viability ([19]; first compound 0.1265 µM): 0.728 | relative viability ([19]; first compound 0.4 µM): 0.332 | relative viability ([19]; first compound 1.265 µM): 0.182 | relative viability ([19]; first compound 4 µM): 0.09 | relative viability ([20]; first compound 0.04 µM): 0.524 | relative viability ([20]; first compound 0.1265 µM): 0.529 | relative viability ([20]; first compound 0.4 µM): 0.71 | relative viability ([20]; first compound 1.265 µM): 0.549 | relative viability ([20]; first compound 4 µM): 0.465 | relative viability ([21]; first compound 0.1265 µM): 0.233 | relative viability ([21]; first compound 0.4 µM): 0.232 | relative viability ([21]; first compound 1.265 µM): 0.133 | relative viability ([21]; first compound 4 µM): 0.128 | relative viability ([22]; first compound 0.04 µM): 0.846 | relative viability ([22]; first compound 0.1265 µM): 0.854 | relative viability ([22]; first compound 0.4 µM): 0.932 | relative viability ([22]; first compound 1.265 µM): 0.573 | relative viability ([22]; first compound 4 µM): 0.613
